Laboratory results taken from paper PMC10840383, “Clinical features, functional consequences, and rescue pharmacology of missense GRID1 and GRID2 human variants” (Human Molecular Genetics, 2023).

Biological target: T1, GluD2-A654T-R710W (Rattus norvegicus, UniProt Q63226, A654T/R710W)
T1 construct: expressed in transfected cells; host or cells: Xenopus laevis oocytes injected with cRNA
T1 sequence (Q63226 24-1007 A654T/R710W): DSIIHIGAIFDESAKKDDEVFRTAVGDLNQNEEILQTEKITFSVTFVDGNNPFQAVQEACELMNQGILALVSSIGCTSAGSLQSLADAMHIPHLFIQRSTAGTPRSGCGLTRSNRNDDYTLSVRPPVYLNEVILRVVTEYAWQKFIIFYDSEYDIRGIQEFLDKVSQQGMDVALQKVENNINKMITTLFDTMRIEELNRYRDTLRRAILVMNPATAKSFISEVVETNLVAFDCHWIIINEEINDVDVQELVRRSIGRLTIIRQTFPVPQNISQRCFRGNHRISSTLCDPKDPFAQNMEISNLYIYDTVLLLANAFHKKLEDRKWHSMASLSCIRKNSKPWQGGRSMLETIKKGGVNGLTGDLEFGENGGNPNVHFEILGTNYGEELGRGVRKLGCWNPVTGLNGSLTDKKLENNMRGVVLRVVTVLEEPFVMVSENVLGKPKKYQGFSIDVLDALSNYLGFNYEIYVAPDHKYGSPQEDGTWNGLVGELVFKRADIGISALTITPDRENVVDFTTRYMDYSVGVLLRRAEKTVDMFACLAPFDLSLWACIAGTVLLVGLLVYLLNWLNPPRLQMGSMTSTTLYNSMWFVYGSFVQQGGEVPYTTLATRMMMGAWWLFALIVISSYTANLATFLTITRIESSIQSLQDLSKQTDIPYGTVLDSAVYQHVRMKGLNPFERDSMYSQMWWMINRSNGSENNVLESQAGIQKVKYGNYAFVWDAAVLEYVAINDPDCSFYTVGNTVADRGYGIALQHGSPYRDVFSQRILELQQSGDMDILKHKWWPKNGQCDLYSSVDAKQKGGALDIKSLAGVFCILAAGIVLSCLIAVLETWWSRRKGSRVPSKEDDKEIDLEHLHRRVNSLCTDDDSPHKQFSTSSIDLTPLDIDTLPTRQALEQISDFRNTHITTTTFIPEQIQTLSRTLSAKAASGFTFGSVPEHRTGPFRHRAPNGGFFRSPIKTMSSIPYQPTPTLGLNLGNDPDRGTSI
Experiment: TEVC of constitutive current, Xenopus oocytes expressing GluD2-A654T-R710W
Format: cell-based
Description: Human GluD1 (GRID1) and rat GluD2 (Grid2) cDNAs were introduced into the pGEM-HE and pCI-neo vectors. GRID1 (NM_017551.3) gene fragments were synthesized by Integrated DNA Technologies and cloned into empty vectors using InFusion cloning (Clontech). […] However, rat and human GluD2-encoding cDNA are identical in the M3 domain in which many of the variants we studied reside (see Supplementary Fig. S1). The full open reading frame for both constructs were verified by Sanger sequencing (Eurofins) and the full plasmid sequence was verified by whole plasmid sequencing (plasmidsaurus). Variant cDNA changes identified in patients were introduced into the cloned human GRID1 (NM_017551.3) in pGEM-HE and cloned rat Grid2 cDNA sequence (NM_024379.1) in pGEM-HE vector using Quikchange Lightning (Agilent) protocol according to the manufacturer’s instructions. Vectors were linearized and cRNA was synthesized using T7 RNA mMESSAGE kit (Invitrogen).
Xenopus laevis oocytes were prepared from ovaries purchased from Xenopus 1 (Dexter, MI) as previously described, [68] and incubated at 16°C in culture Barth’s solution (in mM) 88 NaCl, 2.4 NaHCO3, 1 KCl, 0.33 Ca(NO3)2, 0.41 CaCl2, 0.82 MgSO4, 10 HEPES, pH 7.4 with NaOH, supplemented with 1 U/ml penicillin and 1 μg/ml streptomycin. Oocytes were injected with approximately 5–40 ng RNA per oocyte and then incubated at 16–19°C for 1–3 days in culture Barth’s solution. […] Two-electrode voltage clamp (TEVC) recordings were performed as previously described. Unless otherwise specified, extracellular solution contained (in mM) 90 NaCl, 3 KCl, 0.5 BaCl2, 0.01 EDTA, 10 HEPES, and was brought to pH 7.4 with NaOH. The oocytes were placed in a dual track recording chamber and gravity perfused with solution exchange controlled via a computer-driven 8-valve positioner (Digital MVP Valve). […] Recording electrodes were filled with 0.3 M KCl, and currents were recorded with membrane voltage held at −40 mV. To establish constitutive activity of recombinant receptors when compared to wild type receptors, we used the oocyte recording solution described above, but with 90 mM N-methyl-D-glucamine (NMDG) chloride replacing 90 mM NaCl. […] For Ca^2+ concentration-response curves, choline chloride was used to maintain equimolar concentrations of Cl^− ions in the extracellular solution across the changing concentrations of calcium chloride. All compounds used in this study for concentration-response oocyte recordings were dissolved in deionized water as 50–100 mM stock solutions. In some rescue pharmacology experiments, we substituted 1 mM CaCl2 for 0.5 mM BaCl2 to evaluate Ca^2+-dependent control of receptor responses.

Row | D-serine % Max (NMDG+ − Na+) Mean ± SEM (percent of constitutive leak current (NMDG+/Na+ difference current)) | Effect on constitutive current, in words (compared to GluD2-A654T controls) | Ca2+ % Max (NMDG+ − Na+) Mean ± SEM (normalized to NMDG+ − Na+ difference current) | EC50 (potentiation of constitutive current, read-out: Ca2+ EC50 [95% CI]) [µM] | Ca2+ EC50 A654T/EC50 variant (ratio) | SMILES
1 | 42 ± 3.5 (14) % |  |  |  |  | N[C@H](CO)C(=O)O [D-serine]
2 |  | increased Ca^2+ potency | 245 ± 15 (9) % | 80 | 1.88 | [Ca+2] [Ca^2+]
